Laboratory results published in patent publication US20250002954A1, “Novel Compound, Use Thereof, and Method for Producing Same, and Compound-Containing Composition, Method for Producing 4-Trehalosamine, and Microorganism” (Microbial Chemistry Research Foundation, priority 2021, published 2025).

Legend:
[1] = Measurement of critical micelle concentration (CMC) with CMC assay kit; type: physicochemical
Method: (§1) For the IMCTA-C8, IMCTA-C9, IMCTA-C10, IMCTA-C11, IMCTA-C12, IMCTA-C13, IMCTA-C14, and IMCTA-C15 (IMCTA-Cn) that were obtained in synthesis examples 1 to 8 and for n-dodecyl-β-D-maltoside (DDM) as control, “critical micelle concentration (CMC)”, “micelle size”, and “Hydrophilic-Lipophilic Balance (HLB) value” were measured or calculated in the following manner.
CMC was measured with a Detergent Critical Micelle Concentration (CMC) Assay Kit (CMC1000, manufactured by ProFoldin) according to the product protocol.

[2] = Measurement of micelle size by dynamic light scattering; type: physicochemical
Method: as §1
Micelle sizes were measured by dynamic light scattering with Zetasizer Nano S (manufactured by Malvern Panalytical).

[3] = test system: human ovarian cancer cells OVK18 and human malignant melanoma cells Mewo; experiment: Autophagy inducing effect on cultured cells (western blotting of autophagy-related proteins); type: cell-based; conditions: for accumulation of PCD (precursors of cathepsin D) / concentration giving same or higher LC3-II expression, relative to trehalose / p62 / pAkt / phosphorylation of p70 S6K: 24 hours; for expression of LC3-II (autophagy marker): 24 hours treatment, western blotting
Method: Expression and phosphorylation patterns of autophagy-related proteins when human ovarian cancer cells or human malignant melanoma cells were treated with 4-trehalosamine and trehalose analog for 24 hours were determined by western blotting.
Human ovarian cancer cells OVK18 (obtained from RIKEN BRC) and human malignant melanoma cells Mewo (JCRB0066) were each inoculated on a 12-well microplate at 8×10^4 cells/mL/well and cultured in DMEM culture medium at 37° C. for 72 hours, after which they were treated with test samples.
The test samples used were the 4-trehalosamine (4TA) obtained in the <Purification process> of production example 10, trehalose (TRH), the IMCTA-Cn compounds obtained in synthesis examples 1 to 8, trehalose ester (TRH-Cn) (manufactured by Dojindo Laboratories), n-dodecyl-β-D-maltoside (DDM), maltose (MLT), sucrose (SCR), and rapamycin (RM). Untreated cells without addition of compounds were used as control.
In treatment with the test samples, in order to avoid contact of a compound with locally high concentration with cells, a half of the culture fluid in each well was taken, and a required amount of test sample was dissolved in it. After dissolving it sufficiently, it was returned to the original well and treated at 37° C. for 24 hours.
Subsequently, culture medium containing the test samples was removed, washed once with PBS, and dissolved with 2×SDS sample buffer not containing 2-mercaptoethanol (2-ME) or bromphenol blue (BPB). After measuring the protein concentration in the dissolved sample with a BCA protein assay kit (manufactured by Thermo Fisher Scientific), 2-ME and BPB were added and the sample was boiled for 5 minutes, which was used as a sample for western blotting.
The western blotting was performed in a similar manner to test example 4 except that anti-LC3 antibody, which is a marker for autophagy, anti-p62, anti-cathepsin D antibody, anti-Phospho-Akt (Ser473) antibody, anti-Akt antibody, anti-Phospho-p70 S6K (T389) antibody, and anti-p70 S6K antibody (all manufactured by Cell Signaling Technology) were used at 1/2,000 dilution as the primary antibodies in the method described in test example 4.
The results for human ovarian cancer cells OVK18 are shown in FIGS. 20A to 20C, and the results for human malignant melanoma cells Mewo are shown in FIGS. 20D to 20F. In FIGS. 20A, 20B, 20D, and 20E, “PCD” denotes precursors of cathepsin D and “CD-HC” denotes cathepsin D heavy chain.

[4] = test system: Mycobacterium smegmatis mc^2 (ATCC 700084); experiment: Staining of mycobacterium with IMCTA-fluorescein, IMCTA-biotin or IMCTA-azide; type: cell-based; conditions: for ingestion into bacterial cells and fluorescence (staining): 10 μg/mL IMCTA-fluorescein, 30 μg/mL IMCTA-biotin, 10 μg/mL IMCTA-azide, 37° C., 8 hours; for ingestion in the presence of sucrose (blocking): sucrose 1% or 3%
[5] = test system: human ovarian cancer cells OVK18 and human malignant melanoma cells Mewo; experiment: LC3-II expression in combination with autophagy inhibitor (bafilomycin or chloroquine); type: cell-based; conditions: 50 mM 4-trehalosamine, 50 μM IMCTA-C14 or 100 mM trehalose 14 hours, then 200 nM BM or 100 μM CQ 4 hours
Method: As with the test example 10-1, human ovarian cancer cells OVK18 (obtained from RIKEN BRC) and human malignant melanoma cells Mewo (JCRB0066) were each inoculated on a 12-well microplate at 8×10^4 cells/mL/well, and cultured in DMEM culture medium at 37° C. for 72 hours. After that, a half of the culture fluid in each well was taken and each compound was dissolved so that the final concentration is 50 mM 4-trehalosamine, 50 μM IMCTA-C14, or 100 mM trehalose. After dissolving it sufficiently, the cells were returned to the original well and treated at 37° C. for 14 hours. Untreated cells without addition of the compounds were used as control.
After that, each autophagy inhibitor was added so that the final concentration is 200 nM bafilomycin (BM) or 100 μM chloroquine (CQ), and the cells were cultured at 37° C. for 4 hours. A group with no inhibitor added was cultured in a similar way. After culture, they were turned into samples for western blotting in a similar manner to test example 10-1.
The western blotting was performed in a similar manner to test example 4 except that anti-LC3 antibody (manufactured by Cell Signaling Technology) was used at 1/2,000 dilution as the primary antibody in the method described in test example 4. The results for human ovarian cancer cells OVK18 are shown in FIG. 21A, and the results for human malignant melanoma cells Mewo are shown in FIG. 21B.
Also, the results (graphs) of image analysis on the results of western blotting via Image J (manufactured by National Institutes of Health) are shown in FIGS. 21A and 21B (n=10, mean±S.D.). The vertical axis of the graph indicates the value of the amount of expression (expression amount ratio) of LC3-II for the groups with the different compounds added when the amount of expression of LC3-II in the control (untreated cells) is 1. […]

[6] = test system: aggregated proteins Q74 and SynA53T in SH-SY5Y cells and NH-12 cells; experiment: Elimination effect on aggregated protein in cells (Q74, SynA53T); type: cell-based, human; conditions: 100 mM 4-trehalosamine, 70 μM IMCTA-C14 or 100 mM trehalose, 14 hours; SH-SY5Y and NH-12 cells
Method: The effect of 4-trehalosamine or trehalose analog on Q74, which is partial peptide of huntingtin (Htt), the causal protein of Huntington's disease, and SynA53T, which is a mutation of α-synuclein, the causal protein of Parkinson's disease, (both aggregated proteins) was determined in the following manner.
Neuroblastoma cells SH-SY5Y (obtained from European Collection of Authenticated Cell Cultures (ECACC)) and human neuroblastoma cells NH-12 (obtained from RIKEN BRC) were each inoculated at 14×10^4 cells/mL and cultured in DMEM culture medium at 37° C. for 48 hours.
After the culture of SH-SY5Y cells and NH-12 cells, pEGFP-Q74 vector or EGFP-alphasynuclein-A53T (both obtained from addgene), which are expression vectors of aggregated protein, were transfected with transfection reagent (Viafect, manufactured by Promega). After 24 hours from the transfection, 100 mM 4-trehalosamine, 70 μM IMCTA-C14, or 100 mM trehalose was added and the cells were further treated for 14 hours. Untreated cells without addition of the compounds were used as control. After washing the cells three times with PBS, hyposmotic fluid (solution of one tablet of cOmplete, Mini, EDTA-free Protease Inhibitor Cocktail (CM, manufactured by Merck) in 50 mL of pure water) was added and the mixture was shaken on ice for 10 minutes. It was then centrifuged at 21,300×g for 10 minutes to be separated into soluble protein (Sol) and aggregated protein (Agg) […]. Thereafter, they were turned into samples for western blotting in a similar manner to test example 10-1.
The western blotting was performed in a similar manner to test example 4 except that anti-GFP antibody (manufactured by Proteintech) was used at 1/5,000 dilution and anti-LC3 antibody (manufactured by Cell Signaling Technology) was used at 1/2,000 dilution as the primary antibodies in the method described in test example 4. The results for neuroblastoma cells SH-SY5Y are shown in FIGS. 22A and 22B, and the results for human neuroblastoma cells NH-12 are shown in FIGS. 22C and 22D. […]

Q: Which CMC [1] does the source give for `CCCCCCCCN[C@@H]1C(CO)O[C@H](O[C@H]2OC(CO)[C@@H](O)C(O)C2O)C(O)C1O` (stereo partly drawn) [IMCTA-C8] here?
A: Its CMC is 8.02 mM.

Q: What about the Micelle size [2] of the same compound?
A: Its Micelle size is 4.3 ± 1.7 nm.

Q: For `CCCCCCCCCCCCO[C@@H]1O[C@H](CO)[C@@H](O[C@H]2O[C@H](CO)[C@@H](O)[C@H](O)[C@H]2O)[C@H](O)[C@H]1O` [DDM, n-dodecyl-β-D-maltoside, reference compound], which CMC [1] is on record?
A: Its CMC is 0.23 mM.

Q: What about the Micelle size [2] of the same compound?
A: The Micelle size was 6.1 ± 0.1 nm.

Q: What does the source list for `CCCCCCCCCCCCCN[C@@H]1C(CO)O[C@H](O[C@H]2OC(CO)[C@@H](O)C(O)C2O)C(O)C1O` (stereo partly drawn) [IMCTA-C13]?
A: CMC [1]: 0.24 mM; Micelle size [2]: 17.3 ± 10.9 nm; accumulation of PCD (precursors of cathepsin D) [3]: no accumulation of PCD was observed; concentration giving same or higher LC3-II expression, relative to trehalose [3]: several thousand times lower than trehalose; p62 [3]: accumulation trend of p62; pAkt [3]: decreasing trend of pAkt; phosphorylation of p70 S6K [3]: p70 S6K was not dephosphorylated; expression of LC3-II (autophagy marker) [3]: particularly strong expression

Q: For `O=C(CCCC[C@@H]1SC[C@@H]2NC(=O)N[C@@H]21)N[C@@H]1C(CO)O[C@H](O[C@H]2OC(CO)[C@@H](O)C(O)C2O)C(O)C1O` (stereo partly drawn) [IMCTA-biotin], which “ingestion into bacterial cells and fluorescence (staining)” value [4] is on record?
A: The value was “ingested into Mycobacterium smegmatis bacterial cells and emitted fluorescence”.

Q: What about the staining pattern ([4]; fluorescence microscope) of the same compound?
A: The staining pattern was “patch-like staining pattern”.

Q: And the “ingestion in the presence of sucrose (blocking)” value [4]?
A: The value was “some suppression of ingestion by sucrose”.

Q: For `CCCCCCCCCCN[C@@H]1C(CO)O[C@H](O[C@H]2OC(CO)[C@@H](O)C(O)C2O)C(O)C1O` (stereo partly drawn) [IMCTA-C10], which CMC [1] is on record?
A: Its CMC is 2.67 mM.

Q: What about the Micelle size [2] of the same compound?
A: The Micelle size was 5.9 ± 1.8 nm.

Q: Which results are given for `CCCCCCCCCCCCCCN[C@@H]1C(CO)O[C@H](O[C@H]2OC(CO)[C@@H](O)C(O)C2O)C(O)C1O` (stereo partly drawn) [IMCTA-C14]?
A: CMC [1]: 0.11 mM; Micelle size [2]: 16.5 ± 4.4 nm; accumulation of PCD (precursors of cathepsin D) [3]: no accumulation of PCD was observed; concentration giving same or higher LC3-II expression, relative to trehalose [3]: several thousand times lower than trehalose; p62 [3]: accumulation trend of p62; pAkt [3]: decreasing trend of pAkt; phosphorylation of p70 S6K [3]: p70 S6K was not dephosphorylated; expression of LC3-II (autophagy marker) [3]: particularly strong expression; expression of LC3-II in combination with bafilomycin (BM) or chloroquine (CQ) [5]: increased expression of LC3-II; aggregate of Q74 and aggregate of SynA53T [6]: significantly decreased

Q: Which CMC [1] does the source give for `CCCCCCCCCCCCCCCN[C@@H]1C(CO)O[C@H](O[C@H]2OC(CO)[C@@H](O)C(O)C2O)C(O)C1O` (stereo partly drawn) [IMCTA-C15] here?
A: The CMC was 0.06 mM.

Q: And the Micelle size [2]?
A: The Micelle size was 92.5 ± 49 nm.

Q: And the “accumulation of PCD (precursors of cathepsin D)” value [3]?
A: The value was “no accumulation of PCD was observed”.

Q: What about the “concentration giving same or higher LC3-II expression, relative to trehalose” value [3] of the same compound?
A: Its value is “several thousand times lower than trehalose”.

Q: What about the p62 [3] of the same compound?
A: Its p62 is “accumulation trend of p62”.

Q: What about the pAkt [3] of the same compound?
A: Its pAkt is “decreasing trend of pAkt”.

Q: And the “phosphorylation of p70 S6K” value [3]?
A: The value was “p70 S6K was not dephosphorylated”.

Q: And the “expression of LC3-II (autophagy marker)” value [3]?
A: The value was “particularly strong expression”.

Q: For `CCCCCCCCCCCN[C@@H]1C(CO)O[C@H](O[C@H]2OC(CO)[C@@H](O)C(O)C2O)C(O)C1O` (stereo partly drawn) [IMCTA-C11], which CMC [1] is on record?
A: The CMC was 0.96 mM.

Q: And the Micelle size [2]?
A: Its Micelle size is 15.9 ± 6.5 nm.

Q: With `CCCCCCCCCN[C@@H]1C(CO)O[C@H](O[C@H]2OC(CO)[C@@H](O)C(O)C2O)C(O)C1O` (stereo partly drawn) [IMCTA-C9] as the compound, how does the CMC [1] read?
A: The CMC was 3.84 mM.

Q: What about the Micelle size [2] of the same compound?
A: The Micelle size was 5.5 ± 1.3 nm.

Q: Which results are given for `[N-]=[N+]=N[C@@H]1C(CO)O[C@H](O[C@H]2OC(CO)[C@@H](O)C(O)C2O)C(O)C1O` (stereo partly drawn) [IMCTA-azide, 4-azide-4-deoxy-trehalose]?
A: ingestion into bacterial cells and fluorescence (staining) [4]: ingested into Mycobacterium smegmatis bacterial cells and emitted fluorescence; fluorescence strength compared among labelers ([4]; same amount of labeler): strongest fluorescence; ingestion in the presence of sucrose (blocking) [4]: suppression of ingestion was observed; ingestion in the presence of trehalose (blocking) ([4]; trehalose 1% or 3%): suppression of ingestion was observed

Q: With `CCCCCCCCCCCCN[C@@H]1C(CO)O[C@H](O[C@H]2OC(CO)[C@@H](O)C(O)C2O)C(O)C1O` (stereo partly drawn) [IMCTA-C12] as the compound, how does the CMC [1] read?
A: Its CMC is 0.58 mM.

Q: What about the Micelle size [2] of the same compound?
A: Its Micelle size is 13.7 ± 6.4 nm.
